≈ marks a conversion by molar mass, not a printed value.
Tests used:
Aphidius rhopalosiphi [1] = details: not reported; reproduction
Apis mellifera = details: acute; duration: 48 hours; dermal; mortality
Coturnix japonica = details: acute; oral; diet; mortality
Cyprinodon variegatus = details: acute; duration: 96 hours; mortality
Daphnia magna = details: chronic/long-term; duration: 21 days; reproduction
Lepomis macrochirus = details: acute; duration: 96 hours; mortality
Oncorhynchus mykiss = details: chronic/long-term; duration: 96 days; growth
Tagia sp. = details: acute; mortality
Aphidius rhopalosiphi [2] = assay: LR50; higher = less toxic; details: acute; duration: 48 hours; mortality
[3] = reproduction developmental, reproduction

COP(=S)(OC)SCN1C(=O)c2ccccc2C1=O [Phosmet]
LEL (Aphidius rhopalosiphi [1]): 1.41 g/ha | LD50 (Apis mellifera): 0.22 µg/piece | LD50 (Colinus virginianus; acute, oral, mortality): 57 mg/kg | NOEC (Colinus virginianus; [3]): 7.5 mg/kg-day | LC50 (Coturnix japonica): 406 mg/kg-day | LC50 (Cyprinodon variegatus): 0.17 µg/mL (≈ 0.536 µM) | NOEC (Daphnia magna): 0.00078 mg/L | LC50 (Lepomis macrochirus): 0.0197 µg/mL (≈ 0.0621 µM) | NOEC (Oncorhynchus mykiss): 0.0032 mg/L | NOAEL (Rattus norvegicus; acute, neurology): 4.5 mg/kg-day | LD50 (Rattus norvegicus; acute, oral, mortality): 113 mg/kg | NOAEL (Rattus norvegicus; [3]): 1 mg/kg-day | NOAEL (Rattus norvegicus; subchronic, duration: 13 weeks, neurology): 1.5 mg/kg-day | NOAEL (Rattus norvegicus; subchronic, duration: 90 days, oral, other): 2 mg/kg-day | LC50 (Tagia sp.): 104 mg/kg | LR50 (Aphidius rhopalosiphi [2]): 1.95 g/ha

— EPA's ToxValDB 9.5 (doi:10.2903/j.efsa.2011.2162)
